Values belong to the compound of their own block, whether it stands above or below them.
Experiments:
[1] = Oral supplementation of healthy volunteers, levels in whole blood by UPLC-MSMS; type: in vivo, human
Description: β-Aspartyl-arginine was administered orally either alone or in combination with arginine, and in varying doses. Levels of dipeptide in blood are then monitored over time. The substance used for the experiments is a white powder of β-aspartyl-arginine. The purity is >99% and was determined by HPLC-analysis.
Experimental procedure: The volunteers were three healthy males (age 41 to 51 years, 173-187 cm height, 80-85 kg weight, BMI around 25 kg/m^2). […] The volunteers fasted throughout the experiment. Blood was collected from the fingertip using a lancet device and blotted onto sample cards and levels of dipeptide and amino acids were determined by UPLC-MSMS by an external service provider (Labor Blessing, Singen Germany).

[2] = oral consumption, human use data; cited from earlier work
[3] = target: T1, Clostripain (Cl. histolyticum) (Hathewaya histolytica, UniProt P09870); assay: Hydrolase susceptibility: clostripain, HPLC; type: in vitro ADME; conditions: 500 μg dipeptide per ml, 10 U, 25° C., pH 7.4, 24 h, FIG. 7
T1 construct: purchased Sigma C0888-250UN
Description: (§1) Arginase catalyzes the final step of the urea cycle and converts L-arginine into L-ornithine und urea. The other tested enzymes (proteases) are able to cleave α-peptide bonds involving aspartate and/or arginine. The release of free amino acids or modified dipeptide after treatment with these enzymes is monitored by HPLC. The substance used for the experiments is a white powder of β-L-aspartyl-L-arginine. The purity is >99% and was determined by HPLC-analysis.

[4] = test system: Endoproteinase ArgC (mouse); assay: Hydrolase susceptibility: endoproteinase Arg-C, HPLC; type: in vitro ADME; conditions: 500 μg dipeptide per ml, 37° C., pH 8.5, 24 h, FIG. 7
Description: as §1

[5] = target: T2, Chymotrypsin (Bovine pancreas) (Bos taurus, UniProt P00766); assay: Hydrolase susceptibility: chymotrypsin, HPLC; type: in vitro ADME; conditions: 500 μg dipeptide per ml, 150 U, 30° C., pH 7.8, 24 h, FIG. 7
T2 construct: purchased Applichem A4531; host or cells: bovine pancreas
Description: as §1

[6] = test system: Proteinase N (Bacillus subtilis); assay: Hydrolase susceptibility: proteinase N, HPLC; type: in vitro ADME; conditions: 500 μg dipeptide per ml, 28.4 U, 37° C., pH 1-3, 24 h, FIG. 7
Description: as §1

[7] = test system: bovine liver extract (β-aspartyl peptidases); assay: Cleavage of β-aspartyl dipeptide by bovine liver extract, HPLC; type: in vitro ADME; conditions: 10 mM dipeptide, 37° C.
Source text: β-aspartyl dipeptides contain an isoaspartyl peptide bond instead of the α bond common in proteins. It is therefore resistant to cleavage by most common proteases and peptidases. While this resistance is an advantage in the gut and in the bloodstream as it prevents cleavage before reaching the target tissue, it does raise the question as to how the dipeptide is introduced into the metabolism. Specific cytoplasmic isoaspartases (also known as β-aspartyl peptidases) have been found in mammalian tissues that are capable of cleaving a large variety of β-aspartyl dipeptides and related compounds. Specificity is towards the β-aspartyl moiety, with the identity of the moiety bound to this residue being of little importance. The overall reaction can be summarized as:
The substance used for the experiments is a white powder of β-L-aspartyl-L-arginine. The purity is >99% and was determined by HPLC-analysis.
Bovine liver purchased from a butcher was chosen as a model due to ready availability. Liver (50 g fresh weight) was homogenized using a Waring blender in four times its volume of ice-cold phosphate-buffered saline. Insoluble material was removed by centrifugation for 15 min at 9,000×g at 4° C. The supernatant (liver extract) was used immediately as a test solution.
Test setup: An aliquot of 900 μl of liver extract in a 1.5-ml polypropylene tube was placed into a heat block at 37° C. and allowed to heat up for 10 min. Then, a volume of 100 μl of a solution of 100 mM β-aspartyl-arginine phosphate-buffered saline was added to a give a final concentration of 10 mM. Samples of 100 μl were taken at 0, 1, 2, 3, and 4 h after addition of the dipeptide. Immediately after each sample was taken, it was added to a 1.5-ml screw-cap polypropylene tube containing 100 μl of 10% SDS in water and 700 μl of demineralized water. This tube was immediately heated to 100° C. for 10 min to stop any further enzyme activity. The tube was then cooled to room temperature and 100 μl of 10% KCl solution were added. […] The samples were then diluted appropriately with demineralized water and analyzed by HPLC.

Arginase (Bovine) = target: T3, Arginase (Bovine) (Bos taurus, UniProt Q2KJ64); assay: Hydrolase susceptibility: arginase reaction, HPLC; type: in vitro ADME; conditions: 500 μg per ml, 100 U arginase, 37° C., pH 9.5, FIG. 5/6
T3 construct: purchased Alexis Bio/Sigma ALX-201-081-C020
T3 sequence (Q2KJ64 1-322): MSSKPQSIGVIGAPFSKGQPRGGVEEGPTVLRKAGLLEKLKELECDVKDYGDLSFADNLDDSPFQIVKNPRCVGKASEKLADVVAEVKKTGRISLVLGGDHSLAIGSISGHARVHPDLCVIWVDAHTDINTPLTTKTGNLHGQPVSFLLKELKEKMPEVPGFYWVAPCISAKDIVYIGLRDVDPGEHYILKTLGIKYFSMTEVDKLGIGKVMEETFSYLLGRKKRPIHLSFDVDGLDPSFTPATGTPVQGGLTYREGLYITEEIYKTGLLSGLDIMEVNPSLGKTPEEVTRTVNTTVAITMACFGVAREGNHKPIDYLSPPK
Source text: The release of free amino acids or modified dipeptide after treatment with these enzymes is monitored by HPLC.

[8] = target: T4, Trypsin (Bovine pancreas) (Bos taurus, UniProt P00760); assay: Hydrolase susceptibility: trypsin, HPLC; type: in vitro ADME; conditions: 500 μg dipeptide per ml, 187.5 U, 25° C., pH 7.6, 24 h, FIG. 7
T4 construct: purchased Sigma T1426-50MG; host or cells: bovine pancreas
T4 sequence (P00760 24-246): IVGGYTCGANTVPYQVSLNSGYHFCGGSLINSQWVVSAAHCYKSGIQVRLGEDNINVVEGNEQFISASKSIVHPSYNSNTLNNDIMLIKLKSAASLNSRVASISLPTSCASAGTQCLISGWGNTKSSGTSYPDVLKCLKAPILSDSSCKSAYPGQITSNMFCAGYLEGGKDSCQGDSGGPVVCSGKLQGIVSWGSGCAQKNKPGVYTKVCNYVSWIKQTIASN
Description: as §1

rat liver extract = conditions: β-aspartyl-glycine as a substrate, Dorer et al.; cited from earlier work
[9] = equimolar oral doses of free arginine (as arginine aspartate salt), FIG. 3

T1 sequence (P09870 191-526): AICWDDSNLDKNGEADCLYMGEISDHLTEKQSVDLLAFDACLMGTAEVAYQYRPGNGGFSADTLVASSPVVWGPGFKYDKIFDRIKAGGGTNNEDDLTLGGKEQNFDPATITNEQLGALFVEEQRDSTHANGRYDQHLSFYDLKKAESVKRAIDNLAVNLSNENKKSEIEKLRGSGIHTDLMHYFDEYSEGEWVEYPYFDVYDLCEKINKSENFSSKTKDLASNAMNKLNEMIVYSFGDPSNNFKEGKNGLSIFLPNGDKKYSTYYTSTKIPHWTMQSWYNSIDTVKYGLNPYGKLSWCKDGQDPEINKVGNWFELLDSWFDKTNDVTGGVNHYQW
T1 sequence (P09870 51-181): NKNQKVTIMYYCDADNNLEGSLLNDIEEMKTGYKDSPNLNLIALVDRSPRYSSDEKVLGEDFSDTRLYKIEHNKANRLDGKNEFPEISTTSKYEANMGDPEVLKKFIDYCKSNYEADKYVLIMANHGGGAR

- time for blood concentrations to return to baseline [1, 9]: ≤ 4 h
- time of fast increase in blood concentration [1, 9]: two
SMILES: N=C(N)NCCC[C@H](N)C(=O)O [arginine, reference compound]
- effect of the 5-g dose on blood concentrations versus 2.5 g ([1]; oral free arginine (as arginine aspartate salt), FIG. 3): did not lead to substantially increased blood concentrations
- oral amount beyond which arginine levels in blood do not increase [2]: 2.5 g

SMILES: N=C(N)NCCC[C@H](NC(=O)C[C@H](N)C(=O)O)C(=O)O [β-aspartyl-arginine, β-L-aspartyl-L-arginine]
- change of dipeptide concentration after clostripain treatment [3]: No significant difference
- change of dipeptide concentration after endoproteinase Arg-C treatment [4]: No significant difference
- change of dipeptide concentration after chymotrypsin treatment [5]: No significant difference
- change of dipeptide concentration after proteinase N treatment [6]: No significant difference
- cleavage by enzymes present in bovine liver ([7]; 0-4 h): is cleaved
- hydrolysis activity of liver extract per protein ([7]; bovine liver extract): 0.065 U/mg protein
- hydrolysis activity of liver extract ([7]; smaller timescale experiment, FIG. 8): 2.5 mg of dipeptide being hydrolyzed per gram of liver tissue per hour
- hydrolysis by arginase (Arginase (Bovine)): no significant difference to the start concentration
- form in which the orally administered substance is taken up into the bloodstream ([1]; oral): uncleaved dipeptide form
- period over which the concentration of the dipeptide in whole blood increased ([1]; oral 2.5 g or 5 g dipeptide in 400 ml water, fasted, three volunteers, FIG. 1): about six
- time for which the dipeptide was still detectable in whole blood ([1]; oral 2.5 g or 5 g dipeptide, FIG. 1): 12 h
- free arginine in blood after administration of the dipeptide ([1]; oral dipeptide alone): only detected at baseline levels
- effect of doubling the oral dose on maximum concentration in whole blood ([1]; oral dose from 2.5 g to 5 g): approximately doubled
- change of dipeptide concentration after trypsin treatment [8]: No significant difference

SMILES: N[C@@H](CC(=O)NCC(=O)O)C(=O)O [β-aspartyl-glycine]
- hydrolysis activity of rat liver extract (rat liver extract): 0.028 U/mg

From US20210188905A1, “COMBINING BETA-DIPEPTIDES AND AMINO ACIDS FOR OPTIMAL NUTRITIONAL SUPPLEMENTATION” (Cysal GmbH, priority 2018, published 2021)
